Results: PubChem BioAssay (NCI)
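These data come from cells grown in 96-well plates and exposed to compound for 48 hours at five concentrations. GI50 marks 50% less growth. TGI: concentration producing complete growth inhibition.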

Columns and labels:
Assay in all cases: NCI anticancer screen, dose series, 48 h
NCI-H23 lung = test system: NCI-H23 lung
SK-MEL-2 melanoma = test system: SK-MEL-2 melanoma
OVCAR-8 ovarian = test system: OVCAR-8 ovarian
A549 NSCLC = test system: A549 NSCLC
NCI-H226 lung = test system: NCI-H226 lung
UACC-257 melanoma = test system: UACC-257 melanoma
DU-145 prostate = test system: DU-145 prostate
HS 578T breast = test system: HS 578T breast
A498 renal = test system: A498 renal
PC-3 prostate = test system: PC-3 prostate

SMILES	TGI (NCI-H23 lung)	TGI (SK-MEL-2 melanoma)	TGI (OVCAR-8 ovarian)	TGI (A549 NSCLC)	TGI (NCI-H226 lung)	TGI (UACC-257 melanoma)	TGI (DU-145 prostate)	TGI (HS 578T breast)	TGI (A498 renal)	TGI (PC-3 prostate)	GI50 (NCI-H23 lung)	GI50 (SK-MEL-2 melanoma)	GI50 (OVCAR-8 ovarian)	GI50 (A549 NSCLC)	GI50 (NCI-H226 lung)	GI50 (UACC-257 melanoma)	GI50 (DU-145 prostate)	GI50 (HS 578T breast)	GI50 (A498 renal)	GI50 (PC-3 prostate)
COc1cccc(CC(C)NCC(O)c2ccc(O)c(O)c2)c1 (configuration not stated)	> 100 µM	> 100 µM	53.6 µM	> 100 µM	90.2 µM	> 100 µM	> 100 µM	> 100 µM	> 100 µM	> 100 µM	–	–	–	–	–	–	–	–	–	–
N#CC(C#N)=C1C(C#N)=C(N)NC12OCCO2	> 100 µM	> 100 µM	> 100 µM	> 100 µM	> 100 µM	> 100 µM	> 100 µM	> 100 µM	> 100 µM	> 100 µM	–	–	–	–	–	–	–	–	–	–
O=C1NC(=O)/C(=C/c2ccc(S(=O)(=O)N/N=C/c3ccc(Cl)cc3)cc2)N1	> 100 µM	> 100 µM	> 100 µM	> 100 µM	> 100 µM	> 100 µM	> 100 µM	> 100 µM	> 100 µM	> 100 µM	–	–	–	–	–	–	–	–	–	–
CC1OC2=N[C@@H]1C(=O)N[C@@H](C(C)C)C1=N[C@H](C(=O)N[C@@H](C(C)C)C3=N[C@H](C(=O)N[C@@H](C(C)C)C4=N[C@H](C(=O)N[C@H]2C(C)C)C(C)O4)C(C)O3)C(C)O1 (some centres not stated)	> 10 µM	> 10 µM	> 10 µM	–	> 10 µM	> 10 µM	> 10 µM	> 10 µM	> 10 µM	> 10 µM	–	–	–	–	–	–	–	–	–	–
COc1cc2c(cc1OCCCC(=O)Nc1cc(C(=O)Nc3cc(C(=O)Nc4cc(C(=O)NCCCN(C)C)n(C)n4)n(C)n3)n(C)n1)N=CC1CCCN1C2=O (configuration not stated)	66.5 µM	48 µM	> 100 µM	> 100 µM	48.1 µM	40.9 µM	> 100 µM	79.7 µM	42.8 µM	> 100 µM	–	–	–	–	–	–	–	–	–	–
CCOC(=O)c1c(N2CCCC2)ncn(-c2ccccc2)c1=S	–	> 100 µM	> 100 µM	> 100 µM	> 100 µM	> 100 µM	> 100 µM	> 100 µM	> 100 µM	> 100 µM	–	–	–	–	–	–	–	–	–	–
Cc1cc(/C=C\c2ccc3ccccc3[n+]2C)c(O)c2ncccc12	3.25 µM	> 100 µM	> 100 µM	13.6 µM	3.17 µM	6.59 µM	4.22 µM	7.5 µM	3.01 µM	7.58 µM	0.276 µM	3.03 µM	0.399 µM	0.564 µM	1.24 µM	1.54 µM	0.902 µM	0.681 µM	0.18 µM	0.855 µM
CC[N+]1(C)CCC(O)(/C=C/c2ccc(OC)cc2)C(C(=O)/C=C/c2ccc(OC)cc2)C1 (configuration not stated)	42.6 µM	39.7 µM	> 56.2 µM	> 58 µM	> 100 µM	42.4 µM	31.2 µM	> 85 µM	31.4 µM	42.6 µM	–	–	–	–	–	–	–	–	–	–
O=C(CCN1CCCC1)Nc1ccc2sc3ccccc3c(=O)c2n1	22.9 µM	18 µM	17.3 µM	17.9 µM	29.2 µM	17 µM	25.7 µM	18.2 µM	33.7 µM	22.2 µM	–	–	–	–	–	–	–	–	–	–
C/C(=N\NC(=S)N1CCCCC1)c1cccc(C)n1	10.7 µM	22.4 µM	2.1 µM	10.6 µM	0.4 µM	12.1 µM	2.22 µM	> 100 µM	0.607 µM	19.7 µM	–	–	–	–	–	–	–	–	–	–
Cc1ccncc1.F[B-](F)(F)F.[Pt+2].c1ccc(-c2cccc(-c3ccccn3)n2)nc1	> 88 µM	> 100 µM	31 µM	> 75.7 µM	5.36 µM	44.5 µM	> 100 µM	> 45 µM	45.1 µM	> 100 µM	–	–	–	–	0.618 µM	–	–	–	–	–
COc1nc2c(c(=O)n1C)N[C@H]1[C@H](OC(C)=O)[C@@H](OC(C)=O)CO[C@H]1N2	–	> 100 µM	> 100 µM	> 100 µM	> 100 µM	> 100 µM	> 100 µM	> 100 µM	> 100 µM	> 100 µM	–	–	–	–	–	–	–	–	–	–
CCOP(=O)(OCC)C(Nc1cccc(F)c1)c1ccccc1 (configuration not stated)	> 100 µM	> 100 µM	> 100 µM	> 100 µM	> 100 µM	> 100 µM	> 100 µM	> 100 µM	> 100 µM	> 100 µM	–	–	–	–	–	–	–	–	–	–
N/N=C1/C2CN3CCN(C2)CC1(c1ccc([N+](=O)[O-])cc1)C3	> 100 µM	> 100 µM	> 100 µM	–	> 100 µM	> 100 µM	> 100 µM	> 100 µM	> 100 µM	> 100 µM	–	–	–	–	–	–	–	–	–	–
C(=C\c1cccc(/C=C/c2ccccn2)n1)/c1ccccn1	> 100 µM	> 100 µM	> 100 µM	> 100 µM	> 100 µM	> 100 µM	> 100 µM	44.3 µM	71.7 µM	> 100 µM	–	–	–	–	–	–	–	–	–	–
CC1(C)OCC(C(O)C2OC(C)(C)OC2C=O)O1 (configuration not stated)	> 100 µM	> 100 µM	> 100 µM	> 100 µM	> 100 µM	> 100 µM	> 100 µM	> 100 µM	> 100 µM	> 100 µM	–	–	–	–	–	–	–	–	–	–
O=[N+]([O-])c1ccc(S[C@@H]2[C@H]3c4c(-c5ccccc5)[nH]c(-c5ccccc5)c4[C@@H]2C[C@H]3Cl)cc1	8.91 µM	70.9 µM	> 100 µM	> 100 µM	> 100 µM	> 100 µM	17.3 µM	72.2 µM	89 µM	> 100 µM	–	–	–	–	–	–	–	–	–	–
